The test system of the experiment is CFA induced hypersensitivity in rat. Briefly: CFA induced hypersensitivity in rat assessed using weight bearing method. Format: in vivo. To be noted: 10 mg/kg, 24 hours post CFA, 1, 2 and 4 hours post treatment. The text has this: Intraplantar injection of Complete Freunds adjuvant (CFA) causes an inflammatory reaction which induces hypersensitivity and oedema, and mimics some aspects of clinical inflammatory pain. These effects can be investigated using equipment to measure weight bearing and plethysmometer.
Naive rats distribute their body weight equally between the two hind paws. However, when the injected (left) hind paw is inflamed and/or painful, the weight is re-distributed so that less weight is put on the affected paw (decrease in weight bearing on injured paw). Weight bearing through each hind limb was measured using a rat incapacitance tester (Linton Instruments, UK).
Rats were placed in the incapacitance tester with the hind paws on separate sensors and the average force exerted by both hind limbs was recorded over 4 seconds.
Base line weight bearing and paw volume readings were taken and hypersensitivity was induced via injection of CFA (Baseline weight bearing and paw volume recordings were taken prior to induction of insult. Inflammatory hypersensitivity was induced by intraplantar injection of CFA (100 μL of 1 mg/mL solution) intraplantar to the rats left hind paw.
Animals (Male, Sprague Dawley Rats (Charles River, UK), 212-260 g) were ranked and randomised to treatment groups according to the weight bearing CFA window in a Latin square design. […]

In the case of `COc1ccc2c(c1)c(CC(=O)O)c(C)n2C(=O)c1ccc(Cl)cc1` [Indomethacin, reference compound], the “hypersensitivity response (weight bearing)” value is on record as “significantly inhibited”.

The record behind these values is US11136325B2, “Pyrrolopyrimidine and pyrrolopyridine derivatives” (GALAPAGOS NV, priority 2017, dated 2021).
